Experimental data taken from article PMC5849655 (European Journal of Clinical Pharmacology, 2017).
Like-named read-outs stand apart in the source and are kept apart here. Blank lines part the entries; values can stand above or below the compound they belong to.

How the values were obtained:
[1] = cited from earlier work
[2] = cited from earlier work; remark: listed apart in the source
[3] = system: CYP; settings: cited from earlier work
[4] = system: CYP3A5; settings: cited from earlier work
[5] = cited from earlier work; remark: listed apart in the source
[6] = system: Caco 2; settings: cited from earlier work
[7] = biological target: CYP2C19 (Homo sapiens, UniProt P33261); settings: cited from earlier work; for Ki: read-out: Competitive inhibition constant, Ki (CYP2C19)
[8] = system: Caco-2 cell (human colon carcinoma cell line) monolayers; assay: Caco-2 permeability (siponimod, reference compound); assay type: in vitro ADME; settings: SimCYP V12 input of the siponimod model
Description: (§1) Siponimod absorption was predicted based on the permeability of Caco-2 cell (human colon carcinoma cell line) monolayers and considered to be complete (fraction absorbed [fa] = 1). Absorption rate constant (Ka) was calculated from the first clinical data to be 0.98/h. […] A volume of distribution of 2.12 L/kg was estimated based on preclinical data observation. The initial CL estimation of the siponimod model was based on human in vitro data from HLM and recombinant enzyme kinetics [unpublished data]. By using the in vivo clearance (CL/F) together with the fractional contribution of each CYP enzyme (phenotyping data) in the SimCYP retrograde calculator, the enzyme CLint values were estimated, resulting in an improved drug exposure prediction (Table 3).

[9] = as above; assay type: in vitro ADME, human; settings: human, Caco-2; SimCYP V9 input of the siponimod model; read-out: Reference compound permeability
Description: as §1

Chain of CYP2C19 (P33261 whole entry): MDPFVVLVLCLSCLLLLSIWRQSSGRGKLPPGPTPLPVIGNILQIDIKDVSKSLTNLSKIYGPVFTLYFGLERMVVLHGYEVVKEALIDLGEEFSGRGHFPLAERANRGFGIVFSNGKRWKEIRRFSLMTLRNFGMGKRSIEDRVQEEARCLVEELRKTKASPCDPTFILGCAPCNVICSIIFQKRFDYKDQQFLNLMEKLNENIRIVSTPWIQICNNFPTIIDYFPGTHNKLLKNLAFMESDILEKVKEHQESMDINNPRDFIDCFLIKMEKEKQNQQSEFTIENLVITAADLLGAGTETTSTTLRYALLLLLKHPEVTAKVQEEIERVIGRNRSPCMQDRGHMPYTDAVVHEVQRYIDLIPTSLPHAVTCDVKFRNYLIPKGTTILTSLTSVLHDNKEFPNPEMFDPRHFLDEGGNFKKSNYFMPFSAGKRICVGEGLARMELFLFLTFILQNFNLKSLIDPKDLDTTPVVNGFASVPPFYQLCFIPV

SMILES: OC(Cn1cncn1)(Cn1cncn1)c1ccc(F)cc1F [fluconazole]
- In vivo po clearance, CLpo ([1]; ref SimCYP version 9): 1.5 L/h
- Renal clearance in a 20-30 yr healthy male, CLR ([1]; ref SimCYP version 9): 0.865 L/h
- Volume of distribution, Vss ([1]; ref SimCYP version 9): 0.57 L/kg
- In vivo iv clearance, CLiv ([1]; ref SimCYP version 16): 1.01 L/h
- Renal clearance in a 20-30 yr healthy male, CLR ([1]; ref SimCYP version 16): 0.700 L/h
- Volume of distribution, Vss ([1]; ref SimCYP version 16): 0.748 L/kg
- In vivo iv clearance, CLiv ([1]; used in the V9 model, ref SimCYP V7): 1.3 (SimCYP V7) L/h
- Main plasma binding protein ([2]; ref SimCYP version 9): HSA
- Main plasma binding protein ([2]; ref SimCYP version 16): HSA
- Is the compound a CYP inducer? ([3]; ref SimCYP version 9): no
- Is the compound a MBI? ([3]; ref SimCYP version 9): no
- Is the compound a CYP inducer? ([3]; ref SimCYP version 16): no
- Is the compound a MBI? ([3]; ref SimCYP version 16): no
- Fraction unbound in vitro, fumic (CYP3A5) ([4]; ref SimCYP version 9): 1
- Fraction unbound in vitro, fumic (CYP3A5) ([4]; ref SimCYP version 16): 1
- Compound type ([5]; ref SimCYP version 9): monoprotic base
- Compound type ([5]; ref SimCYP version 16): monoprotic base
- Caco 2 permeability, P Caco 2 ([6]; ref SimCYP version 9): 29.8 10^-6cm/s
- Caco 2 permeability, P Caco 2 ([6]; ref SimCYP version 16): 29.8 10^-6cm/s
- Fraction unbound in vitro, fumic (CYP2C19) ([7]; ref SimCYP version 9): 1
- Ki ([7]; ref SimCYP version 9): 2000 nM
- Fraction unbound in vitro, fumic (CYP2C19) ([7]; ref SimCYP version 16): 1
- Ki ([7]; ref SimCYP version 16): 2000 nM

- Reference compound permeability [8]: Propranolol 5.33 10^-6cm/s
- Papp [9]: 5.33 ×10⁻⁶ cm/s
SMILES: CC(C)NCC(O)COc1cccc2ccccc12 (stereo not shown) [Propranolol, reference compound]
